Measurements from patent US20090004145A1, “COMPOSITIONS AND METHODS INVOLVING GENE THERAPY AND PROTEASOME MODULATION” (priority 2006, published 2009).
≈ marks a conversion by molar mass, not a printed value. Where two headings read alike, the source gives them in different places. *1 amine or outer side, *2 acyl side, *3 side chain or, on linkers, in order; H or OH if unused. Where a SMILES comes first, the peptide text is derived from it. Bridges are numbered along the chain shown (N, C = ends). Roman numbers before positions name the chains, in order. [ ]: non-standard residue; d: D form. Actinocin(9to1) = Cc1c2oc3c(C)ccc(C(=O)[*:1])c3nc-2c(C(=O)[*:2])c(N)c1=O; NMeV = CN[C@H](C(=O)O)C(C)C; Sar = CNCC(=O)O

Experiments:
[1] = in vivo; cited from earlier work
[2] = tested on: chronic myelogenous leukemia; settings: adults with previously untreated chronic myelogenous leukemia; cited from earlier work
[3] = in vivo; cited from earlier work; remark: listed apart in the source
[4] = tested on: 2008 cells; experiment: XTT cell viability assay of CDDP-treated ovarian cancer cell lines; assay type: cell-based, human; settings: CDDP 1 h, then 72 h incubation
Procedure: (§1) FIG. 1. Determination of IC50 values for CDDP-Treated Ovarian Cancer Cell Lines. Human ovarian tumor (2008 and 2008/C*13R) tumor cells (2×10^3) seeded in 96-well plates were treated with various doses of CDDP (0, 10, 20, 30, 60, 80, 100 μM). After 1 h of treatment, CDDP containing medium was removed and fresh medium added to the wells. Cells were incubated for 72 h following which were subjected to XTT assay to determine cell viability. Untreated cells served as controls.
as §1, with “Determination” for “FIG. 1. Determination”, “controls. […] (FIG. 1)” for “controls.”

[5] = tested on: 2008/C*13R cells; experiment: as above; assay type: cell-based, human; settings: CDDP 1 h, then 72 h incubation
Procedure: as §1
as §1, with “Determination” for “FIG. 1. Determination”, “controls. […] (FIG. 1)” for “controls.”

[6] = tested on: 2008 cells; experiment: Tumor cell killing, trypan blue assay; assay type: cell-based, human; settings: CDDP 25 μM, vector 3000 vp/cell, 72 h
Procedure: FIG. 3. Ad-mda7 plus CDDP treatment sensitizes CDDP-resistant tumor cells. CDDP-resistant (2008/C*13 R) and sensitive (2008) ovarian tumor cells were plated in six-well plates and treated with PBS, CDDP (25 μM) Ad-luc, Ad-mda7 (3000 vp/cell), Ad-mda7 plus CDDP or Ad-luc plus CDDP. Treatment schedule was as follows: pretreatment with CDDP for 1 h, washed with PBS to remove any residual CDDP and then infect with Ad-mda7 for 3 h in serum free medium followed by replenishment of complete medium. Cells were harvested at 72 h after treatment and number of dead cells counted by the trypan blue assay.
FIG. 8. CDDP-resistant tumor cells are more sensitive to Ad-mda7. […] Cells were harvested on day 3 and day 5 after treatment and number of dead cells counted by the trypan blue assay and analyzed for apoptotic markers by western blotting. […]
Next, CDDP-resistant (2008/C*13 R) and sensitive (2008) ovarian tumor cells were plated in six-well plates and treated with PBS, CDDP (25 μM) Ad-luc, Ad-mda7 (3000 vp/cell), Ad-mda7 plus CDDP or Ad-luc plus CDDP. […] Cells were harvested at 72 h after treatment and number of dead cells counted by the trypan blue assay.
CDDP-Resistant Tumor Cells are More Sensitive to Ad-mda7. […] Cells were harvested on day 3 and day 5 after treatment and number of dead cells counted by the trypan blue assay and analyzed for apoptotic markers by western blotting. […]

[7] = cited from earlier work
[8] = 15 minutes after intravenous administration; cited from earlier work
[9] = tested on: multiple myeloma; settings: oral administration; cited from earlier work
[10] = humans, intravenous administration; cited from earlier work
[11] = tested on: Hodgkin's disease; settings: cited from earlier work
[12] = usual clinical doses; cited from earlier work
[13] = mice; cited from earlier work
[14] = cited from earlier work; remark: listed apart in the source

Cc1c2oc3c(C)ccc(C(=O)N[C@@H]4C(=O)N[C@H](C(C)C)C(=O)N5CCC[C@H]5C(=O)N(C)CC(=O)N(C)[C@@H](C(C)C)C(=O)O[C@@H]4C)c3nc-2c(C(=O)N[C@@H]2C(=O)N[C@H](C(C)C)C(=O)N3CCC[C@H]3C(=O)N(C)CC(=O)N(C)[C@@H](C(C)C)C(=O)O[C@@H]2C)c(N)c1=O [Actinomycin D] (I: T[dV]P[Sar][NMeV] / II: T[dV]P[Sar][NMeV]; ester I:1-I:C, II:1-II:C; linker I:N-II:N via Actinocin(9to1))
passage of the blood-brain barrier [1]: does not pass the blood-brain barrier

CS(=O)(=O)OCCCCOS(C)(=O)=O [Busulfan, 1,4-butanediol dimethanesulfonate]
patients obtaining hematologic remission [2]: Approximately 90%

[NH2][Pt]([NH2])([Cl])[Cl] [CDDP, Cisplatin]
oral absorption [3]: not absorbed orally
IC50 [4]: 30 µM
IC50 [5]: 145 µM
percent killing [6]: similar

CC[C@@]1(O)C(=O)OCc2c1cc1n(c2=O)Cc2cc3ccccc3nc2-1 [Camptothecin]
solubility (clear yellow solution) ([7]; camptothecin in DMSO 1N sodium hydroxide): 50 mg/mL (≈ 144 mM)
storage stability ([7]; camptothecin, 2-8° C., dry, airtight, light-resistant): at least two
water solubility ([7]; camptothecin): poor water-solubility

O=NN(CCCl)C(=O)NCCCl [Carmustine, 1,3bis-(2-chloroethyl)-1-nitrosourea]
solubility in water ([7]; carmustine): poorly soluble

O=NN(CCCl)C(=O)NC1CCCCC1 [Lomustine, 1-(2-chloro-ethyl)-3-cyclohexyl-1 nitrosourea]
ionization at a physiological pH ([7]; lomustine): relatively unionized
solubility in 10% ethanol ([7]; lomustine): 0.05 mg per ml
solubility in absolute alcohol ([7]; lomustine): 70 mg per ml
solubility in water ([7]; lomustine): < 0.05 mg per ml
tissue levels [8]: comparable to plasma levels

N[C@@H](Cc1ccc(N(CCCl)CCCl)cc1)C(=O)O [Melphalan, 4-[bis(2-chloroethyl)amino]-L-phenylalanine]
patients showing a favorable response [9]: about one third to one half
solubility in water ([7]; melphalan): insoluble in water

CO[C@@]12[C@H](COC(N)=O)C3=C(C(=O)C(C)=C(N)C3=O)N1C[C@@H]1N[C@@H]12 [Mitomycin]
heat stability ([7]; mitomycin): heat stable
clearance from the serum [10]: rapidly cleared

CC[C@]1(O)C[C@@H]2CN(CCc3c([nH]c4ccccc34)[C@@](C(=O)OC)(c3cc4c(cc3OC)N(C)[C@H]3[C@@](O)(C(=O)OC)[C@H](OC(C)=O)[C@]5(CC)C=CCN6CC[C@]43[C@@H]65)C2)C1 [Vinblastine]
cases with significant improvement [11]: 50 to 90%

CC[C@]1(O)C[C@H]2CN(CCc3c([nH]c4ccccc34)[C@@](C(=O)OC)(c3cc4c(cc3OC)N(C=O)[C@H]3[C@@](O)(C(=O)OC)[C@H](OC(C)=O)[C@]5(CC)C=CCN6CC[C@]43[C@@H]65)C2)C1 [Vincristine]
peak concentration in plasma [12]: approximately 0.4 mM

Bleomycin
concentrations in hematopoietic tissue / bone marrow [13]: low concentrations
concentrations in skin, lungs, kidneys, peritoneum and lymphatics [13]: high concentrations
administered dose recovered in the urine as active bleomycin ([14]; humans): 60% to 70
plasma or serum terminal elimination half-life ([14]; patients with creatinine clearance <35 mL per minute, as clearance decreases): increases exponentially
solubility in water ([7]; bleomycin): freely soluble in water
